Results on 8 compounds are retold here after ChEMBL document CHEMBL5226377, “Totopotensamide Congeners from a Halogenase-Inactivated Mutant” (J Nat Prod, 2023).

Where only a bound is given, the exact number is not on record here.

What all share (type): functional, cell-based
One assay concerns A549. The assay is described as follows: Cytotoxicity against human A549 cells assessed as inhibition of cell growth incubated for 24 hrs by MTT assay. As to conditions: A549, 24 h. For orientation: Tetrazolium assays rely on reduction of a dye to a coloured formazan, in cell work by metabolically active cells.
The test system of another assay is Calu-3. The assay is described as follows: Cytotoxicity against human Calu-3 cells assessed as inhibition of cell growth incubated for 24 hrs by MTT assay. The note with it: Calu-3, 24 h.
The test system of the next assay is PANC-1. The assay is described as follows: Cytotoxicity against human PANC-1 cells assessed as inhibition of cell growth incubated for 24 hrs by MTT assay. The note with it: PANC-1, 24 h.
The subject of a further assay is BXPC-3. The assay is described as follows: Cytotoxicity against human BXPC-3 cells assessed as inhibition of cell growth incubated for 24 hrs by MTT assay. As to conditions: BXPC-3, 24 h.

A word on the IC50: it is the concentration at which inhibition is half-maximal.

Turning to `CC[C@H](C)[C@@H]1NC(=O)[C@H](c2cc(O)c(C)c(O)c2Cl)NC(=O)[C@H](NC(=O)[C@H](C)NC(=O)[C@H](NC(=O)CC(=O)[C@@H](C)C[C@@H](C)C[C@@H](C)[C@H](O)[C@@H](C)[C@@H](O[C@@H]2O[C@H](CO)[C@@H](OC)[C@H](O)[C@H]2O)[C@@H](C)O)[C@@H](C)O)[C@@H](C)NC(=O)CNC1=O`, the IC50 in the assay with A549, with Calu-3, in the assay on PANC-1 and in the assay on BXPC-3 was greater than 100 µM throughout.
Turning to `CC[C@H](O[C@@H]1O[C@H](CO)[C@@H](OC)[C@H](O)[C@H]1O)[C@H](C)[C@@H](O)[C@H](C)C[C@H](C)C[C@H](C)C(=O)CC(=O)N[C@@H](C(=O)N[C@@H](C)C(=O)N[C@H]1C(=O)N[C@@H](c2cc(O)c(C)c(O)c2)C(=O)N[C@@H]([C@@H](C)CC)C(=O)NCC(=O)N[C@@H]1C)[C@@H](C)O`, the concentration for half-maximal inhibition (IC50) worked out at 3.7 µM with A549, 12.2 µM in the assay with Calu-3, 3.9 µM in the assay on PANC-1 and 3.9 µM with BXPC-3.
For `CCC(=O)[C@H](C)[C@@H](O)[C@H](C)C[C@H](C)C[C@H](C)C(=O)CC(=O)N[C@@H](C(=O)N[C@@H](C)C(=O)N[C@H]1C(=O)N[C@@H](c2cc(O)c(C)c(O)c2)C(=O)N[C@@H]([C@@H](C)CC)C(=O)NCC(=O)N[C@@H]1C)[C@@H](C)O`, the IC50 in the assay on A549 worked out at 9.7 µM; in the assay on Calu-3, 14.6 µM; in the assay with PANC-1, 9.5 µM; in the assay on BXPC-3, 7.2 µM.
For `CC[C@H](C)[C@@H]1NC(=O)[C@H](c2cc(O)c(C)c(O)c2)NC(=O)[C@H](NC(=O)[C@H](C)NC(=O)[C@H](NC(=O)CC(=O)[C@@H](C)C[C@@H](C)C[C@@H](C)[C@H](O)[C@@H](C)[C@@H](O[C@@H]2O[C@H](CO)[C@@H](OC)[C@H](O)[C@H]2O)[C@@H](C)O)[C@@H](C)O)[C@@H](C)NC(=O)CNC1=O`, in that order: greater than 100 µM, greater than 100 µM, greater than 100 µM and greater than 100 µM.
For `CC[C@H](C)[C@@H]1NC(=O)[C@H](c2cc(O)c(C)c(O)c2)NC(=O)[C@H](NC(=O)[C@H](C)NC(=O)[C@H](NC(=O)CC(=O)[C@@H](C)C[C@@H](C)C[C@@H](C)[C@H](O)[C@@H](CO)[C@@H](O)CC)[C@@H](C)O)[C@@H](C)NC(=O)CNC1=O` the same measures were 10.4 µM, 15.3 µM, 6.6 µM and 8.2 µM.
For `CC[C@H](C)[C@@H]1NC(=O)[C@H](c2cc(O)c(C)c(O)c2)NC(=O)[C@H](NC(=O)[C@H](C)NC(=O)[C@H](NC(=O)CC(=O)[C@@H](C)C[C@@H](C)C[C@@H](C)[C@H](O)[C@@H](C)[C@@H](O)CC)[C@@H](C)O)[C@@H](C)NC(=O)CNC1=O` the same measures were 58.8 µM, greater than 100 µM, 42.1 µM and 30.4 µM.
Regarding `CCC[C@H](C)[C@@H](O)[C@H](C)C[C@H](C)C[C@H](C)C(=O)CC(=O)N[C@@H](C(=O)N[C@@H](C)C(=O)N[C@H]1C(=O)N[C@@H](c2cc(O)c(C)c(O)c2)C(=O)N[C@@H]([C@@H](C)CC)C(=O)NCC(=O)N[C@@H]1C)[C@@H](C)O`, the half-inhibitory concentration (IC50) in the assay on A549, with Calu-3, in the assay with PANC-1 and with BXPC-3 was greater than 100 µM in each case.
As to `CC[C@H](C)[C@@H]1NC(=O)[C@H](c2cc(O)c(C)c(O)c2)NC(=O)[C@H](NC(=O)[C@H](C)NC(=O)[C@H](NC(=O)CC(=O)[C@@H](C)C[C@@H](C)C[C@@H](C)[C@H](O)[C@@H](C)C(=O)[C@@H](C)O)[C@@H](C)O)[C@@H](C)NC(=O)CNC1=O`, the IC50 stood at 9.2 µM with A549, 18.8 µM in the assay on Calu-3, 6.5 µM in the assay on PANC-1 and 2.3 µM with BXPC-3.
